pIC50: −log10 of the molar value.
How the values were obtained:
TNF-α = experiment: Assay for Inhibition of TNF-α Production in LPS Stimulated Mice; assay type: in vivo; conditions: LPS 20 mg/kg i.v.; OF1 mice (female); plasma TNF 1 hour after LPS
Method: Assay for Inhibition of TNF-α Production in LPS Stimulated Mice
Injection of lipopolysaccharide (LPS) induces a rapid release of soluble tumour necrosis factor (TNF-α) into the periphery. This model is be used to analyse prospective blockers of TNF release in vivo.
LPS (20 mg/kg) is injected i.v. into OF1 mice (female, 8 week old). One (1) hour later blood is withdrawn from the animals and TNF levels are analysed in the plasma by an ELISA method using an antibody to TNF-α. […] Compounds to be evaluated are given either orally or s.c. 1 to 4 hours prior to the LPS injection. Inhibition of LPS-induced TNF-release is taken as the readout.

[1] = tested on: TNF-α release from hPBMCs; experiment: Assay for Inhibition of TNF-α release from hPBMCs; assay type: cell-based; conditions: Homo sapiens, 3 h, IFNg (100 U/ml) and LPS, three hours, TNF-α by ELISA, read-out: IC50, suppression of TNF release
Method: Human peripheral blood mononuclear cells (hPBMCs) are prepared from the peripheral blood of healthy volunteers using ficoll-hypaque density separation accordinc to the method of Hansel et al., J. Imm. […] Cells are incubated with serial dilutions of the test compounds for 30 minutes at 37° C. prior to the addition of IFNg (100 U/ml) and LPS (5 mg/ml) and subsequently further incubated for three hours. Incubation is terminated by centrifugation at 1400 RPM for 10 min. TNF-α in the supernatant is measured using a commercial ELISA (Innotest hTNFa, available from Innogenetics N.V., Zwijnaarde, Belium). Agents of the Invention are tested at concentrations of from 0 to 10 mM.

p38 MAP kinase = molecular target: T1, p38 MAP kinase (Mus musculus, UniProt P47811); experiment: p38 MAP kinase Assay (GST-ATF-2 phosphorylation, His-p38 MAP kinase); assay type: biochemical, murine; conditions: ATP 120 μM; substrate GST-ATF-2; 1 h at 37° C; read-out: IC50 for p38 MAP kinase inhibition
T1 construct: full length murine p38 MAP kinase; His tag; made in house; host or cells: E. coli
T1 sequence (P47811 whole entry): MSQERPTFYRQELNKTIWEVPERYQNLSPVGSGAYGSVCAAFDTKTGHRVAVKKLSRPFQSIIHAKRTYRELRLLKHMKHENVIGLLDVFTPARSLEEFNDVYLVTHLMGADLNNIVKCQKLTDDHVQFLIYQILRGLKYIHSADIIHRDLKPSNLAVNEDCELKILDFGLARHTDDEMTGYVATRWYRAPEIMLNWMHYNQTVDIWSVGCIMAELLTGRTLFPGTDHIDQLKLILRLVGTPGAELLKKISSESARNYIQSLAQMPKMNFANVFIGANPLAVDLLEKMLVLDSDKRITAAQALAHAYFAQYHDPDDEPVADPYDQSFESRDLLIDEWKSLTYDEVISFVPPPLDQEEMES
Method: The substrate (GST-ATF-2; a fusion protein comprising amino acids 1-109 of ATF-2 and the GST protein obtained by expression in E. coli) is coated onto the wells of microtiter plates (50 μl/well; 1 μg/ml in PBS/0.02% Na azide) overnight at 4° C. The following day, the microtiter plates are washed four times with PBS/0.5% Tween 20/0.02% Na azide and are blocked with PBS/2% BSA/0.02% Na Azide for 1 h at 37° C. Plates are washed again 4 times with PBS/0.5% Tween 20/0.02% Na azide. The kinase cascade reaction is then started by adding the following reactants in 10 μl aliquots to a final reaction volume of 50 μl.
1. Agents of the Invention titrated from 10 to 0.001 μM in 10-fold dilutions or solvent (DMSO) or H2 O.
2. Kinase buffer (5×); pH 7.4; 125 mM Hepes (Stock at 1M; Gibco #15630-056). […]
After 1 h at 37° C. the kinase reaction is terminated by washing the plates four times as previously described. Phosphorylated GST-ATF-2 is then detected by adding: […]
After step 1,2 and 3 the microtiter plates are washed four times with PBS/0.5% Tween 20/0.02% Na azide. After step 4, the plates are read in a Bio-Rad microplate reader in a dual wavelength mode (measurement filter 405 nm and reference filter 490 nm). The background value (without ATP) is subtracted and IC50 values are calculated using the Origin computer program (4 parameter logistic function).

Nc1nc(N)c(F)c(-c2nc(-c3ccc(F)cc3)c(-c3ccncc3)[nH]2)c1F [Example 17, 4-(4-Fluorophenyl)-5-(4-pyridyl) 2-(2,6-diamino-3,5-difluoropyridinyl)imidazole]
inhibition of TNF production (TNF-α): about 80% | pIC50 [1]: ~7.05 | pIC50 (p38 MAP kinase): ~8.00
